Data published in patent US20140243324A1, “USE OF HEMATOPOIETIC GROWTH FACTOR MIMETICS” (LIGAND PHARMACEUTICALS INCORPORATED, priority 2010, published 2014).
Each block holds one compound with its values, some of them ahead of it.

Columns and labels:
[1] = tested on: Erythroid cells; assay: EPO-dependent cell viability assay; assay type: cell-based; settings: for maximum efficacy relative to the efficacy of EPO (cell viability): erythroid cells, FIG. 3; for erythropoietic efficacy compared with EPO at typical serum concentrations: typical EPO in blood approx. 0.01 U/ml
Procedure: Erythroid cells were treated with various concentrations of recombinant human EPO, Compound 101, or Compound 102, and the viability of treated cells was measured. The maximum efficacies of Compounds 101 and 102 was approximately 40% of the efficacy of EPO, corresponding to EPO EC40 of approximately 0.02 U/ml (FIG. 3). The typical EPO concentration in blood is approximately 0.01 U/ml, with a range from about 0.006 U/ml to about 0.032 U/ml.

[2] = tested on: GATA1; assay: Electrophoretic mobility shift assay for GATA1 in UT7 cells; assay type: cell-based, human; settings: 30 minute treatment
Procedure: Binding of GATA1 to DNA was measured in an electrophoretic mobility shift assay for GATA1 in UT7 cells after 30 minute treatments with 1 U/ml EPO, 30 nM Compound 102, or 100 nM Compound 101.

[3] = tested on: CD34+ human bone marrow cells (BM-HCs); assay: Relative differentiation of human bone marrow cells (CD235a expression); assay type: cell-based; settings: 10 nm Compound 101; FIG. 4
Procedure: CD34+ human bone marrow cells (BM-HCs) were treated with various concentrations of recombinant human EPO, Compound 101, Compound 102, or control. The number of cells expressing the erythrocyte-specific marker, CD235a (glycophorin A), was measured. […] The level of expression of CD235a in cells treated with 10 nm Compound 101 was approximately 37% of the level of expression of CD235a in cells treated with 2.0 U/ml EPO.

[4] = tested on: PI3K; assay: Phosphorylation of PI3K in UT7 cells; assay type: cell-based, human; settings: 60 minutes, FIG. 5B
Procedure: (§1) UT7 cells were treated with 10 nM Compound 102, 100 nM Compound 102, or control (vehicle). Phosphorylation of the EPO receptor was measured after 15 minutes or 45 minutes of treatment with Compound 101 or control (vehicle) (FIG. 5A). Phosphorylation of PI3K was measured after 60 minutes of treatment with EPO, Compound 101, or control (vehicle) (FIG. 5B). Phosphorylation of GATA1 was measured after 60 minutes treatment with Compound 102, EPO or control (vehicle) (FIG. 5C).

[5] = tested on: CD34+ human bone marrow cells; assay: BFU-E colony formation in human CD34+ bone marrow cells; assay type: cell-based; settings: Compound 101 10 nM
Procedure: CD34+ human bone marrow cells were incubated with recombinant human EPO, Compound 101, or control. Compound 101 stimulated the formation of BFU-E colonies with partial efficacy (31%) when incubated with BM-HCs.

[6] = tested on: UT7 cells; assay: Relative cell viability of UT7 cells transfected with EPO receptor- and GATA1-specific siRNAs; assay type: cell-based, human; settings: 30 nM Compound 101, FIG. 7
Procedure: UT7 cells transfected with EPO receptor- and GATA1-specific siRNAs were treated with 1 U/ml EPO, 30 nM Compound 101, or control (vehicle). The relative cell viability of the cells was measured (FIG. 7).

[7] = tested on: GATA1; assay: Phosphorylation of GATA1 in UT7 cells; assay type: cell-based, human; settings: 60 minutes, FIG. 5C
Procedure: as §1

[8] = biological target: T1, EPO receptor (Homo sapiens, UniProt P19235); assay: Phosphorylation of the EPO receptor in UT7 cells; assay type: cell-based; settings: 10 nM or 100 nM, 15 or 45 minutes, FIG. 5A
T1 construct: endogenous in cells; host or cells: UT7 cells
Procedure: as §1

[9] = tested on: BCL2L1; assay: BCL2L1 expression in Mo7e cells that lack EPO receptor; assay type: cell-based; settings: GM-CSF- and TPO-responsive human leukemia Mo7e cells that lack EPO receptor
[10] = tested on: STAT5; assay: STAT5 DNA binding in UT7EPO cells; assay type: cell-based, human
Procedure: (§2) Using human cell lines, the action of Compound 103 was determined to be dependent on the EPO receptor and involves the selective activation of the PI3K/AKT-GATA1 signaling pathway.

[11] = tested on: PI3K; assay: Phosphorylation of PI3K in UT7EPO cells; assay type: cell-based, human
Procedure: as §2

[12] = tested on: CD34+ human bone marrow hematopoietic cells (BM-HCs); assay: Percentage of CD235a (glycophorin A) positive cells in CD34+ BM-HCs; assay type: cell-based
[13] = tested on: EPO responsive genes (hemoglobin α, EPO receptor, BCL2L1); assay: Expression of EPO responsive genes in CD34 positive BM-HCs; assay type: cell-based, human
[14] = tested on: Mo7e cells; assay: Apoptosis in Mo7e cells that lack EPO receptor; assay type: cell-based; settings: GM-CSF- and TPO-responsive human leukemia Mo7e cells that lack EPO receptor
[15] = tested on: BM-HCs; assay: Lineage specificity in BM-HCs (CD41, CD15 markers); assay type: cell-based, human
Procedure: (§3) In addition, Compound 103 stimulated the formation of BFU-E colonies with partial efficacy (30%) when incubated with BM-HCs for 14 days. The effect of Compound 103 on BM-HCs was specific for the erythroid lineage.

[16] = tested on: UT7EPO cells; assay: Apoptosis induced by EPO withdrawal / cell survival in UT7EPO cells; assay type: cell-based, human
Procedure: as §2

[17] = tested on: BM-HCs; assay: BFU-E colony formation in BM-HCs, 14 days; assay type: cell-based, human; settings: incubated with BM-HCs for 14 days
Procedure: as §3

[18] = tested on: STAT5; assay: Phosphorylation of STAT5 in UT7EPO cells; assay type: cell-based, human
Procedure: as §2

[19] = tested on: GATA1; assay: Binding of GATA1 to DNA in UT7EPO cells; assay type: cell-based, human
Procedure: as §2

[20] = tested on: BCL2L1; assay: BCL2L1 expression in UT7EPO cells; assay type: cell-based, human
Procedure: as §2

[21] = tested on: GATA1; assay: Phosphorylation of GATA1 in UT7EPO cells; assay type: cell-based, human
Procedure: as §2

[22] = biological target: T2, EPOR (Homo sapiens, UniProt P19235); assay: Phosphorylation of EPOR in UT7EPO cells; assay type: cell-based
T2 construct: In the human EPO-dependent cell line UT7EPO; endogenous in cells; host or cells: UT7EPO cells
Procedure: as §2

[23] = tested on: ERK/MAPK; assay: Phosphorylation of ERK/MAPK in UT7EPO cells; assay type: cell-based, human
Procedure: as §2

T2 sequence (P19235 25-508): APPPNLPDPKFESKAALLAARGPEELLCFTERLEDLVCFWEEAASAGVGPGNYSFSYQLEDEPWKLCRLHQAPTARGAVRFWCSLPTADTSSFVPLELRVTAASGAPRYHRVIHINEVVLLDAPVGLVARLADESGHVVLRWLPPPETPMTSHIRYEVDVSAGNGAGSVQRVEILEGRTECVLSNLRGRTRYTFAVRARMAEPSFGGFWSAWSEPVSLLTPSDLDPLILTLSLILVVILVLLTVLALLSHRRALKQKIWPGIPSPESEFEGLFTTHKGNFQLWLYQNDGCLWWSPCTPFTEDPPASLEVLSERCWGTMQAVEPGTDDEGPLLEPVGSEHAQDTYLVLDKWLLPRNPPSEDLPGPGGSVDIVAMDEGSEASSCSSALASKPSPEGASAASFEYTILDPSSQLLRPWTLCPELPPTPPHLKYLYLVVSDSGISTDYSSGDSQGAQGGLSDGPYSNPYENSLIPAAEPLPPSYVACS
T2 sequence (O60674 whole entry partner): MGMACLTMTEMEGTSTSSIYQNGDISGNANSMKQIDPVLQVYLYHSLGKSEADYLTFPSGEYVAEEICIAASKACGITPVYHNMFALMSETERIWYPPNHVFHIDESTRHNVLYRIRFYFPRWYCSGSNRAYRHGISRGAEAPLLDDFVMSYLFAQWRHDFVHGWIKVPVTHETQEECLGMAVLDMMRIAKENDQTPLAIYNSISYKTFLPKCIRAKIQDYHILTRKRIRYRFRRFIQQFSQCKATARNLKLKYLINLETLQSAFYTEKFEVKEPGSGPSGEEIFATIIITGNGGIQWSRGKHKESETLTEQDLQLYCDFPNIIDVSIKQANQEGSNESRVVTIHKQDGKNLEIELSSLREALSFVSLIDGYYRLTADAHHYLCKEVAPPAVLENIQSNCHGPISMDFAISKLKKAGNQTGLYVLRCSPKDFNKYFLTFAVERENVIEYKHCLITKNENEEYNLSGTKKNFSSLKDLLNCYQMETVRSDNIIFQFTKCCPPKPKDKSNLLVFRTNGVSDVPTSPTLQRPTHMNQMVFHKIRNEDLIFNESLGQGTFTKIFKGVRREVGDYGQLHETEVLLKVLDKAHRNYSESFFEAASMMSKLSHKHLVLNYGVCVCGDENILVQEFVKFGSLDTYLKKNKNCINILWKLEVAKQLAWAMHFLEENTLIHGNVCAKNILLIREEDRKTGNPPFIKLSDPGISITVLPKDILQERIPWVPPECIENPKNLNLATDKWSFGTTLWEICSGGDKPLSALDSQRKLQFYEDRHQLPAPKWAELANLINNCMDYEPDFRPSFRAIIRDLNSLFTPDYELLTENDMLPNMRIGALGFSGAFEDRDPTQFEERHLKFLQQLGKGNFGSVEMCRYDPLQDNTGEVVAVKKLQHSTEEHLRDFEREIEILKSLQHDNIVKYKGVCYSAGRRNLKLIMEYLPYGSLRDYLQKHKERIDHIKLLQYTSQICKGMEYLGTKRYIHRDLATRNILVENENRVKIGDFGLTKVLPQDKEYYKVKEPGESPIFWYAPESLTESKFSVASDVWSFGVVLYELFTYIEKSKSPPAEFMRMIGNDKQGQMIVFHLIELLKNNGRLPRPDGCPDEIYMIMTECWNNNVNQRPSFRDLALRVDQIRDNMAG
T1 sequence (P19235 25-508): as the sequence (P19235 25-508) above
T1 sequence (O60674 whole entry partner): as the sequence (O60674 whole entry partner) above

SMILES: CN(C)c1ccc(C(=O)N/N=C/c2ccc(Oc3ccc(/C=N/NC(=O)c4ccc(N(C)C)cc4)cc3)cc2)cc1 [Compound 101, (N′,N′″E,N′,N′″E)-N′,N′″-((Oxybis(4,1-phenylene))bis(methanylylidene))bis(4-(dimethylamino)benzohydrazide)]
maximum efficacy relative to the efficacy of EPO (cell viability) [1]: approximately 40%
erythropoietic efficacy compared with EPO at typical serum concentrations [1]: greater than would be predicted for EPO at typical serum concentrations
binding of GATA1 to DNA (EMSA) ([2]; 100 nM Compound 101): induce binding of GATA1 to DNA
level of expression of CD235a compared with cells treated with 0.01 U/ml EPO [3]: above the level of expression observed in cells treated with 0.01 U/ml EPO
level of expression of CD235a relative to cells treated with 2.0 U/ml EPO [3]: approximately 37%
phosphorylation of PI3K [4]: stimulated phosphorylation
% BFU-E relative to 3 U/ml EPO [5]: 31%
BFU-Es/Dish [5]: 11
effect of EPO receptor- and GATA1-specific siRNAs on compound activity (relative cell viability) [6]: blocks activity

phosphorylation of the EPO receptor [8]: stimulated phosphorylation
SMILES: COc1cccc(C(=O)N/N=C/c2ccc(Oc3ccc(/C=N/NC(=O)c4cccc(OC)c4)cc3)cc2)c1 [Compound 102, (N′,N′″E,N′,N′″E)-N′,N′″-((oxybis(4,1-phenylene))bis(methanylylidene))bis(3-methoxybenzohydrazide)]
phosphorylation of GATA1 [7]: stimulated phosphorylation
maximum efficacy relative to the efficacy of EPO (cell viability) [1]: approximately 40%
erythropoietic efficacy compared with EPO at typical serum concentrations [1]: greater than would be predicted for EPO at typical serum concentrations
binding of GATA1 to DNA (EMSA) ([2]; 30 nM Compound 102): induce binding of GATA1 to DNA

EC50 ([12]; Homo sapiens, CD34+ BM-HCs, read-out: EC50, increase of percentage of cells positive for CD235a): 2 nM
expression of EPO responsive genes including hemoglobin α, EPO receptor and BCL2L1 [13]: stimulated the expression
phosphorylation of EPOR [22]: stimulated the phosphorylation
SMILES: CN(C)c1ccc(C(=O)N/N=C/c2cccc(/C=N/NC(=O)c3ccc(N(C)C)cc3)c2)cc1 [Compound 103, (N′,N′″E,N′,N′″E)-N′,N′″-(1,3-phenylenebis(methanylylidene))bis(4-(dimethylamino)benzohydrazide)]
stimulation of BCL2L1 expression [9]: did not
induction of STAT5 DNA binding [10]: did not
phosphorylation of PI3K [11]: stimulated the phosphorylation
erythropoietic effect in combination with EPO ([12]; BM-HCs): additive to the effect of EPO
Emax ([12]; Homo sapiens, CD34+ BM-HCs, read-out: efficacy relative to the maximal effect of EPO (3 U/ml), CD235a positive cells): 42%
efficacy compared with the normal serum EPO concentration, CD235a positive cells ([12]; normal serum EPO (−0.01 U/ml)): greater than the efficacy of the normal serum EPO concentration
block of apoptosis [14]: did not block apoptosis
percentage of BM-HCs positive for the granulocyte marker CD15 [15]: did not increase
percentage of BM-HCs positive for the megakaryocyte marker CD41 [15]: did not increase
EC50 ([16]; Homo sapiens, UT-7/Epo, UT7EPO cells, read-out: EC50, block of apoptosis induced by EPO withdrawal): 10 nM
activity after transfection with EPO receptor- and GATA1-specific siRNAs ([16]; UT7EPO cells): blocked the activity
effect on cell survival in presence of the PI3K inhibitor LY294002 ([16]; UT7EPO cells incubated with LY294002): blocked the effect
formation of BFU-E colonies, partial efficacy [17]: 30%
phosphorylation of STAT5 [18]: did not stimulate phosphorylation
binding of GATA1 to DNA [19]: induced the binding of GATA1 to DNA
stimulation of the expression of BCL2L1, efficacy [20]: efficacy comparable to EPO
phosphorylation of GATA1 [21]: stimulated the phosphorylation
phosphorylation of ERK/MAPK [23]: did not stimulate phosphorylation
